{"source": "patent US4780560A", "about": "“Nitrate derivatives and vasodilators containing the same” (priority 1986, dated 1988)", "key": {"[1]": {"test_system": "Coronary artery", "assay": "Vasodilating activity: increase in coronary blood flow in anesthetized dogs", "type": "in vivo, Hybrid adult dogs", "conditions": "i.v., n = 3 anesthetized dogs, vs. prior to administration", "protocol": "(§1) A suspension of the compounds produced in the above examples in 0.5% HCO 60 solution was administered through the lateroradial dermal vein. […] As a control drug was employed Cinnepazied (1-[(1-pyrrolidinylcarbonyl)methyl]-4-(3,4,5-trimethyoxycinnamoyl)piperazine)."}, "[2]": {"test_system": "Vertebral artery", "assay": "Vasodilating activity: increase in vertebral blood flow in anesthetized dogs", "type": "in vivo, Hybrid adult dogs", "conditions": "i.v., n = 3 anesthetized dogs, vs. prior to administration", "protocol": "as §1"}}, "data": [{"compound": "COc1cc(/C=C/C=C/C(=O)NCCO[N+](=O)[O-])cc(OC)c1OC", "note": "[Example 1, N-(β-hydroxyethyl)-5-(3,4,5-trimethoxyphenyl)-2,4-pentadienoic acid amide nitrate]", "values": [{"measurement": "Increase in blood flow (Δ% ± SE), Coronary artery", "setting": "[1]; 0.3 mg/kg", "result": "3.6 ± 0.2 Δ%"}, {"measurement": "Increase in blood flow (Δ% ± SE), Coronary artery", "setting": "[1]; 1.0 mg/kg", "result": "28.6 ± 1.9 Δ%"}, {"measurement": "Increase in blood flow (Δ% ± SE), Vertebral artery", "setting": "[2]; 0.3 mg/kg", "result": "50.0 ± 2.4 Δ%"}, {"measurement": "Increase in blood flow (Δ% ± SE), Vertebral artery", "setting": "[2]; 1.0 mg/kg", "result": "83.3 ± 7.5 Δ%"}]}, {"compound": "COc1cc(/C=C/C(=O)NCCO[N+](=O)[O-])cc(OC)c1OC", "note": "[Example 2, N-(β-hydroxyethyl)-3,4,5-trimethoxycinnamic acid amide nitrate]", "values": [{"measurement": "Increase in blood flow (Δ% ± SE), Coronary artery", "setting": "[1]; 0.3 mg/kg", "result": "3.8 ± 0.5 Δ%"}, {"measurement": "Increase in blood flow (Δ% ± SE), Coronary artery", "setting": "[1]; 1.0 mg/kg", "result": "22.9 ± 1.5 Δ%"}, {"measurement": "Increase in blood flow (Δ% ± SE), Vertebral artery", "setting": "[2]; 0.3 mg/kg", "result": "35.0 ± 1.7 Δ%"}, {"measurement": "Increase in blood flow (Δ% ± SE), Vertebral artery", "setting": "[2]; 1.0 mg/kg", "result": "58.3 ± 5.3 Δ%"}]}, {"compound": "COc1cc(C=CC(=O)N2CCN(CC(=O)N3CCCC3)CC2)cc(OC)c1OC", "note": "[Cinnepazid, 1-[(1-pyrrolidinylcarbonyl)methyl]-4-(3,4,5-trimethyoxycinnamoyl)piperazine, reference compound]", "values": [{"measurement": "Increase in blood flow (Δ% ± SE), Coronary artery", "setting": "[1]; 0.3 mg/kg", "result": "2.1 ± 0.8 Δ%"}, {"measurement": "Increase in blood flow (Δ% ± SE), Coronary artery", "setting": "[1]; 1.0 mg/kg", "result": "10.0 ± 0.5 Δ%"}, {"measurement": "Increase in blood flow (Δ% ± SE), Vertebral artery", "setting": "[2]; 0.3 mg/kg", "result": "1.5 ± 0.4 Δ%"}, {"measurement": "Increase in blood flow (Δ% ± SE), Vertebral artery", "setting": "[2]; 1.0 mg/kg", "result": "5.6 ± 0.2 Δ%"}]}]}
